According to publication PMC4823785, “A Tricholoma matsutake Peptide with Angiotensin Converting Enzyme Inhibitory and Antioxidative Activities and Antihypertensive Effects in Spontaneously Hypertensive Rats” (Scientific Reports, 2016):
Read-outs that look alike come from different tables or passages of the source. Where no end group is shown, it is not given here.

How the values were obtained:
ACE [1] = conditions: cited from earlier work
ACE [2] = biological target: T1, ACE (Oryctolagus cuniculus, UniProt P12822); experiment: Assay of ACE inhibitory activity (spectrophotometric, HHL substrate); assay type: biochemical, rabbit; conditions: chemically synthesized peptides; means ± S.D. of three determinations
T1 construct: ACE was prepared using fresh rabbit lungs according to the protocol reported by Hayakari et al; from tissue; host or cells: fresh rabbit lungs (supernatant of homogenate)
T1 sequence (P12822 34-1310): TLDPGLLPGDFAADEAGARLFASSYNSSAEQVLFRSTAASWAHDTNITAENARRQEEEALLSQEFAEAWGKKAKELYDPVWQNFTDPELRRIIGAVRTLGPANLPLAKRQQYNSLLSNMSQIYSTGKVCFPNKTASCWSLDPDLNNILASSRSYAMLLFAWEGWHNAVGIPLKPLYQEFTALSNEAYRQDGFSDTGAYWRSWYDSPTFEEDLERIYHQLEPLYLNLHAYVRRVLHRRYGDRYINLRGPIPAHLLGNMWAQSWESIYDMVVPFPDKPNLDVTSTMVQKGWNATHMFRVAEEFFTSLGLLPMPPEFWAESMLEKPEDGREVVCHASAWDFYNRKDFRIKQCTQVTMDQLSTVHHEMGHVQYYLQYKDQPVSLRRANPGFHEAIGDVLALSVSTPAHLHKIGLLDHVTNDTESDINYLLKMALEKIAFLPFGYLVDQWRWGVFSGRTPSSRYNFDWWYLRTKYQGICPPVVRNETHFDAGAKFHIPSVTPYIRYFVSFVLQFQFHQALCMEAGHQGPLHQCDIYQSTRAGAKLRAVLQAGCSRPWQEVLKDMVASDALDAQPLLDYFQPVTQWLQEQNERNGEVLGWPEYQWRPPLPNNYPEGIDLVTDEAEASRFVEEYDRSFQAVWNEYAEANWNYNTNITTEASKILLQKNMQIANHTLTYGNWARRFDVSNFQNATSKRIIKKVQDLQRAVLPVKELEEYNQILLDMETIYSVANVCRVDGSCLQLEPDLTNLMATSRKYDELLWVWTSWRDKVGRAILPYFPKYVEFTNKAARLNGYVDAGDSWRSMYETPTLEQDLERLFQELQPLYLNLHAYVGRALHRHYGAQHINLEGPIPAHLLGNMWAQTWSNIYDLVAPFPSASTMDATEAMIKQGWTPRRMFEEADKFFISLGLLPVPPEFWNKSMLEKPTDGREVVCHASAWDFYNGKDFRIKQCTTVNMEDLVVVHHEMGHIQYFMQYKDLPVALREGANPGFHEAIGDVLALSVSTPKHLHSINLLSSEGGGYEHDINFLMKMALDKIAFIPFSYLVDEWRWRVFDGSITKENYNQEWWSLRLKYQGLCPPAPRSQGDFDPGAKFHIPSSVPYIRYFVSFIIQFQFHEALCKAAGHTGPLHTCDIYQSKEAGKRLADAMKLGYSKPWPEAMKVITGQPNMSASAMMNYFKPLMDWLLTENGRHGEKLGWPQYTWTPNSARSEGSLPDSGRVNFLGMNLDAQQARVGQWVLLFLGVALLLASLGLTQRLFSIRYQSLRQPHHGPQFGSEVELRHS
Method: ACE was prepared using fresh rabbit lungs according to the protocol reported by Hayakari et al.[35] with some modifications. After washing with ice-cold 0.15 M NaCl, the rabbit lungs without connective tissues were cut up to small pieces and homogenized in 10 volumes of ice-old 0.1 M sodium borate buffer (pH 8.3) containing 0.25 M sucrose and 0.1 mM PMSF. The homogenate was centrifuged at 9,000 rpm for 40 min at 4 °C after dialysis at 4 °C overnight in 0.1 M sodium borate buffer (pH 8.3). The resulting supernatant was centrifuged at 9,000 rpm for 40 min at 4 °C again. The ACE activity in the supernatant was determined and the supernatant was aliquoted and then stored at −20 °C for further experiments.
The ACE inhibitory activity was assayed by using a spectrophotometric method following the protocol described by Cushman[36] with modifications. Briefly, an aliquot (20 μL) of the sample was mixed with 20 μL ACE and 150 μL 5 mM HHL in 0.1 M borate buffer (pH 8.3) containing 0.3 M NaCl. The reaction mixture was incubated at 37 °C for 30 min, and then the reaction was terminated by adding 500 μL 1 M HCl. The hippuric acid formed was extracted with 1.2 mL ethyl acetate and centrifuged at 4,000 rpm for 10 min. Then 800 μL of the upper organic phase was heat-evaporated at 95 °C for 35 min to remove ethyl acetate. The dried residue was dissolved in 800 μL distilled water and vortex mixed, and the absorbance was measured spectrophotometrically at 228 nm to estimate ACE inhibitory activity. ACE-inhibitory activity was calculated by using the equation 1: […]
where A was the absorbance of the solution containing ACE and inhibitor, B was the absorbance of solution containing ACE and inhibitor but terminated in advance, C was the absorbance of the solution containing ACE without inhibitor, and D was the absorbance of the solution containing ACE without inhibitor but terminated in advance. The concentration of the inhibitor required to inhibit 50% of the ACE activity under the above assay conditions was defined as IC50.

[3] = system: spontaneously hypertensive rats; experiment: Antihypertensive action in spontaneously hypertensive rats (SBP, tail-cuff); conditions: SHRs, oral, 100 mg/kg BW, at 2 h
Method: All experiments were performed in accordance with the Regulations of Experimental Animal Administration issued by the State Committee of Science and Technology of the People’s Republic of China and also with the approval of the Animal Experimentation Ethics Committee of The Chinese University of Hong Kong which had been procured prior to the animal experiments. SHRs with systolic blood pressure (SBP) higher than 180 mmHg were randomly divided into six groups after acclimation for 1 week. During the acclimatization period prior to the test, the blood pressures of the rats were measured four times weekly. Each group containing four rats. […] The group treated with crude water extract of T. matsutake received the extract at two different concentrations: 200 mg/kg body weight and 400 mg/kg body weight. SBP was measured thrice at each of the following time points: 0, 0.5, 2, 4, 6 and 8 h after drug/sample administration, using a tail-cuff method with a programmable BP-100A electro-sphygmomanometer (Chengdu Taimeng Software Co., Ltd., Chengdu, China).

[4] = peptide from Pleurotus cystidiosus
[5] = peptide from Tricholoma giganteum
[6] = mushroom species printed in the row: Tricholoma matsutake, ref not given
[7] = peptide from Hypsizygus marmoreus

For GPSMR, the IC50 (ACE [1]; [4]) is given as 278000 nM and the “Mode of inhibitory of ACE” value (ACE [1]; [4]) is given as “Competitive”.
Work on LLVTLKK [LLVTLKK] yielded an IC50 (ACE [2]) of 950 ± 120 nM.
LIDKVVK [LIDKVVK] showed an IC50 (ACE [2]) of 620 ± 420 nM.
In the case of GQP, the IC50 (ACE [1]; [5]) is listed as 130 nM and the “Mode of inhibitory of ACE” value (ACE [1]; [5]) is listed as “Competitive”.
With `C[C@H](CS)C(=O)N1CCC[C@H]1C(=O)O` [captopril] the “maximum decrease in SBP” value [3] was 38 mm Hg.
In the case of AHEPVK, the IC50 (ACE [1]; [6]) is given as 63000 nM, the “Mode of inhibitory of ACE” value (ACE [1]; [6]) is given as “Competitive” and the IC50 (ACE [1]; [4]) is given as 62800 nM. For the same compound, the “Mode of inhibitory of ACE” value (ACE [1]; [4]) was “Competitive”.
ILSKLK [ILSKLK] gave an IC50 (ACE [2]) of 4020 ± 310 nM.
With IISKIK [IISKIK] the IC50 (ACE [2]) was 1190 ± 260 nM.
For VIQKYP, the IC50 (ACE [1]; peptide from Grifola frondosa) is given as 120 nM and the “Mode of inhibitory of ACE” value (ACE [1]; peptide from Grifola frondosa) is given as “Competitive”.
In the case of RLPSEFDLSAFLRA, the IC50 (ACE [1]; peptide from P. cornucopiae) is given as 280 nM and the “Mode of inhibitory of ACE” value (ACE [1]; peptide from P. cornucopiae) is given as “Competitive”.
For LSMGSASLSP, the IC50 (ACE [1]; [7]) is given as 330 nM and the “Mode of inhibitory of ACE” value (ACE [1]; [7]) is given as “Non-competitive”.
In the case of RLSGQTIEVTSEYLFRH, the IC50 (ACE [1]; peptide from P. cornucopiae) is listed as 560 nM and the “Mode of inhibitory of ACE” value (ACE [1]; peptide from P. cornucopiae) is listed as “Non-competitive”.
In the case of PSSNK, the IC50 (ACE [1]; peptide from Agaricus bisporus) is listed as 129000 nM and the “Mode of inhibitory of ACE” value (ACE [1]; peptide from Agaricus bisporus) is listed as “Non- competitive”.
In the case of RIGLF, the IC50 (ACE [1]; peptide from Agaricus bisporus) is listed as 116000 nM and the “Mode of inhibitory of ACE” value (ACE [1]; peptide from Agaricus bisporus) is listed as “Competitive”.
For GQGGP, the IC50 (ACE [1]; peptide from Pholiota adiposa) is given as 100 nM.
Work on WALKGYK [TMP, WALKGYK] yielded an IC50 (ACE [2]) of 400 ± 290 nM.
